Nine compounds from patent US10106524B2, “2,3,4,5-tetrahydropyridin-6-amine and 3,4-dihydro-2H-pyrrol-5-amine compound inhibitors of beta-secretase” (Janssen Pharmaceutica NV, priority 2015, dated 2018) can be followed below.

The test system of test [1] is Abeta total produced and secreted by SKNBE2 cells expressing hAPP695. In words: Cellular αLisa assay in SKNBE2 cells - Abeta total. In kind it is cell-based. Conditions: Homo sapiens, incubated for 18 hours, read-out: Cellular αLisa assay in SKNBE2 cells Abeta total pIC50 (converted). As for the experimental part: (§1) Cellular αLisa Assay in SKNBE2 Cells
(§2) In two αLisa assays the levels of Abeta total and Abeta 1-42 produced and secreted into the medium of human neuroblastoma SKNBE2 cells are quantified. The assay is based on the human neuroblastoma SKNBE2 expressing the wild type Amyloid Precursor Protein (hAPP695). The compounds are diluted and added to these cells, incubated for 18 hours and then measurements of Abeta 1-42 and Abeta total are taken. Abeta total and Abeta 1-42 are measured by sandwich αLisa. αLisa is a sandwich assay using biotinylated antibody AbN/25 attached to streptavidin coated beads and antibody Ab4G8 or cAb42/26 conjugated acceptor beads for the detection of Abeta total and Abeta 1-42 respectively. In the presence of Abeta total or Abeta 1-42, the beads come into close proximity. The excitation of the donor beads provokes the release of singlet oxygen molecules that trigger a cascade of energy transfer in the acceptor beads, resulting in light emission. Light emission is measured after 1 hour incubation (excitation at […] and emission at 615 nm).
(§3) A best-fit curve is fitted by a minimum sum of squares method to the plot of % Controlmin versus compound concentration. From this an IC50 value (inhibitory concentration causing 50% inhibition of activity) can be obtained.

Test [2] addresses T1, recombinant BACE1 protein (Homo sapiens, UniProt P56817).
T1 construct: recombinant BACE1 protein in a final concentration of 1 μg/ml
In words: BACE1 biochemical FRET based assay - Method 2. The conditions noted are these: BACE1 0.04 μg/ml, 450 minutes, 20 μM substrate, pH 5.0; read-out: Biochemical FRET based assay- Method 2 pIC50 (converted).
Excerpt: (§4) BACE1 Biochemical FRET Based Assay
(§5) This assay is a Fluorescence Resonance Energy Transfer Assay (FRET) based assay. The substrate for this assay is an APP derived 13 amino acids peptide that contains the ‘Swedish’ Lys-Met/Asn-Leu mutation of the amyloid precursor protein (APP) beta-secretase cleavage site. This substrate also contains two fluorophores: (7-methoxycoumarin-4-yl) acetic acid (Mca) is a fluorescent donor with excitation wavelength at 320 nm and emission at 405 nm and 2,4-Dinitrophenyl (Dnp) is a proprietary quencher acceptor. […] Upon cleavage by BACE1, the fluorophore Mca is separated from the quenching group Dnp, restoring the full fluorescence yield of the donor. The increase in fluorescence is linearly related to the rate of proteolysis.
Briefly in a 384-well format recombinant BACE1 protein in a final concentration of 0.04 μg/ml is incubated for 450 minutes at room temperature with 20 μM substrate in incubation buffer (50 mM Citrate buffer pH 5.0, 0.05% PEG) in the presence of compound or DMSO. Next the amount of proteolysis is directly measured by fluorescence measurement (excitation at 320 nm and emission at 405 nm) at different incubation times (0, 30, 60, 90, 120 and 450 min). For every experiment a time curve (every 30 min between 0 min and 120 min) is used to determine the time where we find the lowest basal signal of the high control. The signal at this time (Tx) is used to subtract from the signal at 450 min. Results are expressed in RFU, as difference between T450 and Tx.
as §3

Test [3] concerns Abeta 1-42 produced and secreted by SKNBE2 cells expressing hAPP695. In words: Cellular αLisa assay in SKNBE2 cells - Abeta 42. Conditions: Homo sapiens, incubated for 18 hours, read-out: Cellular αLisa assay in SKNBE2 cells Abeta 42 pIC50 (converted). In kind it is cell-based, human. As for the experimental part: as §1, §2, §3
In test [4] the target is T2, recombinant BACE2 protein (Homo sapiens, UniProt Q9Y5Z0).
T2 construct: recombinant BACE2 protein in a final concentration of 0.4 μg/nil
T2 sequence (Q9Y5Z0 63-518): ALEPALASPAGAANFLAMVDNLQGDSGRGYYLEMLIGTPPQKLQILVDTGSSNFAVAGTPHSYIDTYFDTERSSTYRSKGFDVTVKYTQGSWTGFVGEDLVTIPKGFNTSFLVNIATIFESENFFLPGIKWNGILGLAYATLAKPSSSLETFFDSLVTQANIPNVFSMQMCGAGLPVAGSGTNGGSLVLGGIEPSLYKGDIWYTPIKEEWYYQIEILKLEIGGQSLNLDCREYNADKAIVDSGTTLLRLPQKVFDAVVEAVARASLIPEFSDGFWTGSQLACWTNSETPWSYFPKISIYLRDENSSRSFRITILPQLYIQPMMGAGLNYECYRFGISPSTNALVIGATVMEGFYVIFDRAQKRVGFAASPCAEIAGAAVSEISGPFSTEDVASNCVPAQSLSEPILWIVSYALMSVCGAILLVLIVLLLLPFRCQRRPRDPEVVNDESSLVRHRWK
In words: BACE2 biochemical FRET based assay. The conditions noted are these: BACE2 0.4 μg/nil, 450 minutes, 10 μM substrate, pH 5.0; read-out: Biochemical FRET based assay pIC50 (BACE2) (converted).
Excerpt: BACE2 Biochemical FRET Based Assay
as §5, with “assay” for “assay is an APP derived 13 amino acids peptide that”, “the beta-secretase,” for “BACE1,”
Briefly in a 384-well format recombinant BACE2 protein in a final concentration of […] is incubated for 450 minutes at room temperature with 10 μM substrate in incubation buffer (50 mM Citrate buffer pH 5.0, 0.05% PEG, no DMSO) in the absence or presence of compound. Next the amount of proteolysis is directly measured by fluorescence measurement at T=0 and T=450 (excitation at 320 nm and emission at 405 nm). Results are expressed in RFU (Relative Fluorescence Units), as difference between T450 and T0.
as §3

In test [5] the target is T1, recombinant BACE1 protein. In words: BACE1 biochemical FRET based assay - Method 1. The conditions noted are these: BACE1 1 μg/ml, 120 minutes, 10 μm substrate, pH 5.0; read-out: Biochemical FRET based assay - Method 1 pIC50 (converted).
Excerpt: as §4, §5
Briefly in a 384-well format recombinant BACE1 protein in a final concentration of 1 μg/ml is incubated for 120 minutes at room temperature with 10 μm substrate in incubation buffer (40 mM Citrate buffer pH 5.0, 0.04% PEG, 4% DMSO) in the absence or presence of compound. Next the amount of proteolysis is directly measured by fluorescence measurement at T=0 and T=120 (excitation at 320 nm and emission at 405 nm). Results are expressed in RFU (Relative Fluorescence Units), as difference between T120 and T0.
as §3

T1 sequence (P56817 46-501): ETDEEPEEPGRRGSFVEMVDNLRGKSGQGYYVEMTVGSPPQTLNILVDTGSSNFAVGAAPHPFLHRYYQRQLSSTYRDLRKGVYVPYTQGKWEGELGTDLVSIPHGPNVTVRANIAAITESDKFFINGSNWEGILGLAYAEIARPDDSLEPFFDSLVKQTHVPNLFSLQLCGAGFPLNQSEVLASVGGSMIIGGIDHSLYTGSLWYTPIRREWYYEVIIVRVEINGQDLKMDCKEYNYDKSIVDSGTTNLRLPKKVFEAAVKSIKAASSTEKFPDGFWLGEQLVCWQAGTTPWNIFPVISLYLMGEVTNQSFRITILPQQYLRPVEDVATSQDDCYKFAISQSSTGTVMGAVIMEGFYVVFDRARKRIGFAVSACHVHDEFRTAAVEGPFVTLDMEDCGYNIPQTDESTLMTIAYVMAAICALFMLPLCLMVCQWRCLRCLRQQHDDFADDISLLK

Consider `CC1(c2cc(NC(=O)c3ccc(C#N)cn3)ccc2F)N=C(N)CC1C(F)(F)F` (racemic) [Compound 18, (+)-N-[3-[(2S*,3R*)-5-amino-2-methyl-3-(trifluoromethyl)-3,4-dihydropyrrol-2-yl]-4-fluoro-phenyl]-5-cyano-pyridine-2-carboxamide], for which the IC50 in test [1] was 64.6 nM; in test [2], 380 nM; in test [3], 67.6 nM; in test [4] it was 2190 nM.

Regarding `C[C@@]1(c2cccc(-c3cncnc3)c2)C[C@H](C(F)(F)F)CC(N)=N1` [Compound 2, (4S,6S)-6-methyl-6-(3-pyrimidin-5-ylphenyl)-4-(trifluoromethyl)-3,4,5,6-tetrahydropyridin-2-amine], the IC50 is 18200 nM in test [5]; 3980 nM in test [1]; over 10000 nM in test [2]; 4270 nM in test [3]; over 10000 nM in test [4].

Consider `C[C@@]1(c2cccc(-c3cncnc3)c2)C[C@@H](C(F)(F)F)CC(N)=N1` [Compound 1, (4R,6S)-6-methyl-6-(3-pyrimidin-5-ylphenyl)-4-(trifluoromethyl)-3,4,5,6-tetrahydropyridin-2-amine], for which the IC50 in test [5] is 1480 nM; in test [1] it was 263 nM; in test [2], 1020 nM; in test [3], 295 nM.

For the compound `C[C@]1(c2cc(NC(=O)c3ccc(Cl)cn3)ccc2F)N=C(N)C[C@H]1C(F)(F)F` [Compound 19, N-[3-[(2S,3R)-5-amino-2-methyl-3-(trifluoromethyl)-3,4-dihydropyrrol-2-yl]-4-fluoro-phenyl]-5-chloro-pyridine-2-carboxamide], the IC50 in test [1] was 81.3 nM; in test [2] it was 302 nM; in test [3], 61.7 nM; in test [4], 692 nM.

Take `CC1(c2cc(-c3cncnc3)ccc2F)N=C(N)CC1C(F)(F)F` (centres unmarked) [Compound 14]: the IC50 is 8320 nM in test [1], over 10000 nM in test [2], 8910 nM in test [3] and over 10000 nM in test [4].

With `C[C@@]1(c2cc(NC(=O)c3ccc(Cl)cn3)ccc2F)N=C(N)C[C@@H]1C(F)(F)F` [Compound 20, N-[3-[(2R,3S)-5-amino-2-methyl-3-(trifluoromethyl)-3,4-dihydropyrrol-2-yl]-4-fluoro-phenyl]-5-chloro-pyridine-2-carboxamide], the IC50 in test [1] was 8320 nM; in test [2], over 10000 nM; in test [3] it was 8910 nM; in test [4] it was over 10000 nM.

For `COc1cnc(C(=O)Nc2ccc(F)c(C3(C)N=C(N)CC3C(F)(F)F)c2)cn1` (racemic) [Compound 17, (±)-N-[3-[(2S*,3R*)-5-amino-2-methyl-3-(trifluoromethyl)-3,4-dihydropyrrol-2-yl]-4-fluoro-phenyl]-5-methoxy-pyrazine-2-carboxamide], the IC50 was 178 nM in test [1], 871 nM in test [2], 170 nM in test [3] and over 10000 nM in test [4].

Turning to `C[C@]1(c2cc(NC(=O)c3ccc(C#N)cn3)ccc2F)N=C(N)C[C@H]1C(F)(F)F` [Compound 26, N-[3-[(2S,3R)-5-amino-2-methyl-3-(trifluoromethyl)-3,4-dihydropyrrol-2-yl]-4-fluoro-phenyl]-5-cyano-pyridine-2-carboxamide], the IC50 is over 10000 nM in test [2], over 8910 nM in test [3] and over 10000 nM in test [4].

For the compound `COc1cccnc1Nc1ccc(F)c([C@]2(C)N=C(N)C[C@@H]2C(F)(F)F)c1` [Compound 28, N-[3-[(2R,3S)-5-amino-2-methyl-3-(trifluoromethyl)-3,4-dihydropyrrol-2-yl]-4-fluoro-phenyl]-3-methoxy-pyridin-2-amine], the results for the IC50 in test [2], in test [3] and in test [4] were 1200 nM, 347 nM and 617 nM, respectively.
